Source: patent US20240043448A1, “Small Molecule Inhibitors of KRAS G12C Mutant” (Merck Sharp & Dohme LLC, priority 2019, published 2024)
Like-named read-outs stand apart in the source and are kept apart here.

Assays:
[1] = biological target: Biotinylated KRAS G12C protein (Homo sapiens (Human), UniProt P01116, C118S/C51S/C80L/G12C); assay: SOS-catalyzed nucleotide exchange assay (TR-FRET); assay type: biochemical; conditions: in vitro apparent potency; preincubation time of 60 minutes prior to addition of SOS
In short: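 Biotinylated KRAS G12C preloaded with Bodipy-GDP and Tb-streptavidin, then incubated with compound (10-point, 3-fold series) for 60 min at RT. Exchange started with SOS and GTP for 60 min. TR-FRET 520/495 ratio normalised to DMSO and saturating-inhibitor controls; four-parameter fit.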

phospho-ERK = assay: Cellular phospho-ERK assay; assay type: cell-based; conditions: NCI-H358 cells, 2 hour incubation, ratio of p-Erk vs total Erk, read-out: IC50 (nM) pERK (Cell)
In short: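 NCI-H358 cells seeded overnight, then exposed to compound dose-response titrations for 2 hours at 37° C. in RPMI. Lysates assayed by AlphaLISA SureFire Ultra multiplex for p-Erk and total Erk; ratio p-Erk/total Erk used as readout, IC50 from 4-parameter logistic fit.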

Compound: C=CC(=O)N1CCN(c2nc(=O)n3c4nc(c(F)cc24)-c2c(F)cccc2OCCCCc2ccnc(C(C)C)c2-3)[C@H](C)C1 [Example 4b, 18,21-Difluoro-2-[(2S)-2-methyl-4-(prop-2-enoyl)piperazin-1-yl]-6-(propan-2-yl)-10,11,12,13-tetrahydro-4H-1,19-ethenopyrido[4,3-f]pyrimido[1,6-h][1,8,10]benzoxadiazacyclotridecin-4-one]
- IC50 [1]: 6890 nM
- IC50 (phospho-ERK): 1160 nM

Compound: C=CC(=O)N1CCN(c2nc(=O)n3c4nc(c(F)cc24)-c2c(F)cccc2C(=O)NCCCc2ccnc(C(C)C)c2-3)[C@@H](C)C1 (single isomer, unassigned) [Example 19a]
- IC50 [1]: 6.8 nM
- IC50 (phospho-ERK): 117 nM

Compound: C=CC(=O)N1CCN(c2nc(=O)n3c4nc(c(F)cc24)-c2c(F)cccc2CCOCCc2ccnc(C(C)C)c2-3)[C@@H](C)C1 [Example 17a, 18,21-difluoro-2-[(2S)-2-methyl-4-(prop-2-enoyl)piperazin-1-yl]-6-(propan-2-yl)-10,11,13,14-tetrahydro-4H-1,19-ethenopyrido[3,4-e]pyrimido[6,1-c][9,2,4]benzoxadiazacyclotridecin-4-one]
- IC50 [1]: 11 nM
- IC50 (phospho-ERK): 66 nM

Compound: C=CC(=O)N1CC(C)N(c2nc(=O)n3c4nc(c(F)cc24)-c2c(F)cc(F)cc2OCC(F)(F)CCc2ccnc(C(C)C)c2-3)CC1C [Example 56, (5aRa,18aRa)-2-[(2S,5R)-2,5-dimethyl-4-(prop-2-enoyl)piperazin-1-yl]-12,12,16,18,21-pentafluoro-6-(propan-2-yl)-10,11,12,13-tetrahydro-4H-1,19-(ethanediylidene)pyrido[4,3-f]pyrimido[1,6-h][1,8,10] benzoxadiazacyclotri-decin-4-one]
- IC50 [1]: 1.1 nM
- IC50 (phospho-ERK; Homo sapiens, NCI-H358, 2 h): 8 nM

Compound: 17,20-difluoro-2-[(2S)-2-methyl-4-(prop-2-enoyl)piperazin-1-yl]-6-(propan-2-yl)-10,11,12,13-tetrahydro-4H-1,18-ethenopyrido[4,3-e]pyrimido[1,6-g][1,7,9]benzotriazacyclododecin-4-one [Example 112]
- IC50 [1]: 23 nM
- IC50 (phospho-ERK): 26 nM

Compound: C=CC(=O)N1C[C@H](C)N(c2nc(=O)n3c4nc(c(F)cc24)-c2c(F)cccc2OCCc2ccnc(C(C)C)c2-3)C[C@H]1C [Example 96, 2-[(2S,5R)-2,5-dimethyl-4-(prop-2-enoyl)piperazin-1-yl]-16,19-difluoro-6-(propan-2-yl)-10,11-dihydro-4H-1,17-ethenopyrido[4,3-d]pyrimido[1,6-f][1,6,8]benzoxadiazacycloundecin-4-one]
- IC50 [1]: 3.8 nM
- IC50 (phospho-ERK; Homo sapiens, NCI-H358, 2 h): 32 nM

Compound: C=CC(=O)N1C[C@H](C)N(c2nc(=O)n3c4nc(c(F)cc24)-c2c(F)cccc2OCC2(CCc4ccnc(C(C)C)c4-3)CC2)C[C@H]1C [Example 60, 2′-[(2S,5R)-2,5-dimethyl-4-(prop-2-enoyl)piperazin-1-yl]-18′,21′-difluoro-6′-(propan-2-yl)-10′,11′-dihydro-4′H,13′H-spiro[cyclopropane-1,12′-[14]oxa[3,5,7,20]tetraaza[1,19] (ethanediylidene)pyrido[4,3-f]pyrimido[1,6-h][1,8,10]benzoxadiazacyclotri-decin]-4′-one]
- IC50 [1]: 1.5 nM
- IC50 (phospho-ERK; Homo sapiens, NCI-H358, 2 h): 17 nM

Compound: C=CC(=O)N1CCN(c2nc(=O)n3c4nc(c(F)cc24)-c2c(F)cccc2CC[C@@H](O)Cc2ccnc(C(C)C)c2-3)[C@@H](C)C1 [Example 118-2, 17,20-difluoro-11-hydroxy-2-[(2S)-2-methyl-4-(prop-2-enoyl)piperazin-1-yl]-6-(propan-2-yl)-10,11,12,13-tetrahydro-4H-1,18-ethenopyrido[3,4-e]pyrimido[6,1-c][2,4]benzodiazacyclododecin-4-one]
- IC50 [1]: 54 nM
- IC50 (phospho-ERK): 1220 nM

Compound: 17,20-difluoro-6-(propan-2-yl)-2-[4-(prop- 2-enoyl)-2-(2,2,2-trifluoroethyl)piperazin- 1-yl]-11,12-dihydro-4H,10H-1,18- (ethanediylidene)pyrido[4,3- e]pyrimido[1,6-g][1,7,9] benzoxadiazacyclododecin-4-one [Example 101]
- IC50 [1]: 29 nM
- IC50 (phospho-ERK): 137 nM
